In patent US10526327B2, “Histone demethylase inhibitors” (CELGENE QUANTICEL RESEARCH, INC., priority 2013, dated 2020) one finds IC50 data, which are given here for 12 compounds.

Usually IC50 stands for the midpoint of a concentration-inhibition curve. High values mean a need for much substance, low ones inhibition by little substance.

Molecules are shown by their SMILES.

For experiment [1], the target named is T1, Jarid1B (Homo sapiens, UniProt Q9UGL1).
T1 construct: purchased BPS Bioscience or custom made by MolecularThroughput 50121
T1 sequence (Q9UGL1 2-751): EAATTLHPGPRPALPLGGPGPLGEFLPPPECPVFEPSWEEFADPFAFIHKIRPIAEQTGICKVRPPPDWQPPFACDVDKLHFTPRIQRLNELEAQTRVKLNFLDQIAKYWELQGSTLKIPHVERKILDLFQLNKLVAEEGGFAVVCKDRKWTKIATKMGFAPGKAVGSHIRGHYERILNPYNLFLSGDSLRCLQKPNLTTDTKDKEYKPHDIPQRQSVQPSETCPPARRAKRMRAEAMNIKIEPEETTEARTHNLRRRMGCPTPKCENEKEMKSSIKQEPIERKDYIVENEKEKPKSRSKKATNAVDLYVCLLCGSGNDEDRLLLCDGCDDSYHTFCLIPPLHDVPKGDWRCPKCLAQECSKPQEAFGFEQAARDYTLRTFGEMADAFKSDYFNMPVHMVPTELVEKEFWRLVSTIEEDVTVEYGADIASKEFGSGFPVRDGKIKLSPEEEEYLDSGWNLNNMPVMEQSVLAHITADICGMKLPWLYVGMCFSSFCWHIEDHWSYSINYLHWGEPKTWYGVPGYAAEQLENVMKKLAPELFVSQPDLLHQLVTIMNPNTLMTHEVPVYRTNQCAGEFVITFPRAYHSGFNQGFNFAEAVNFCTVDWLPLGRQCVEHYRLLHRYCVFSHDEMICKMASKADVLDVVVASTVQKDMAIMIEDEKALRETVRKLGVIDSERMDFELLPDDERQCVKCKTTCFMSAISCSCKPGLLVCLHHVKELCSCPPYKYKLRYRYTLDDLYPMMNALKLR
Description: Jarid1B in vitro enzyme inhibition assay (TR-FRET). It is filed as biochemical. An outline of the steps: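 Jarid1B (AA 2-751, baculovirus-expressed) at 0.8 nM with 300 nM biotin-H3K4me3 peptide and 2 μM α-ketoglutarate in HEPES pH 7.3 with ascorbate and Fe(II), 30 min at room temperature. Stopped with EDTA; H3K4me1-2 product detected by TR-FRET (665/615 ratio) and IC50 fitted from 11-point dilutions.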

For experiment [2], the target named is T2, JMJD2C (Homo sapiens, UniProt Q9H3R0).
T2 construct: purchased BPS Bioscience 50105
T2 sequence (Q9H3R0 2-372): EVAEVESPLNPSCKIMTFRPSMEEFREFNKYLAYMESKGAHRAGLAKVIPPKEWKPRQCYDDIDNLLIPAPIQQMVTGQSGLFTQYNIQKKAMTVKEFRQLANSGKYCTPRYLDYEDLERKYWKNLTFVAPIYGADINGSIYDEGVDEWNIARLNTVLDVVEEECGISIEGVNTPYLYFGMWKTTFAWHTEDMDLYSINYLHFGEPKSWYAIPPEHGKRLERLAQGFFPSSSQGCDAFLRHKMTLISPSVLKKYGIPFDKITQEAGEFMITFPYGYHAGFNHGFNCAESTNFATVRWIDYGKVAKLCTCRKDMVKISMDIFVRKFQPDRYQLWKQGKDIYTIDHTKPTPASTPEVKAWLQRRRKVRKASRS
Briefly: JMJD2C in vitro enzyme inhibition assay (TR-FRET). It is filed as biochemical. Put shortly: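 Baculovirus-expressed human JMJD2C (AA 2-372) at 0.3 nM demethylated 300 nM biotin-H3K9me3 peptide with 2 μM alpha-ketoglutarate in HEPES pH 7.3 containing ascorbate and Fe(II), 30 min at room temperature. EDTA-stopped product was read by TR-FRET with Eu-anti-H3K9me2 and streptavidin-APC; 665/615 ratios from 11-point dilutions gave IC50.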

As for `O=S(=O)(c1ccccc1)N1CCC(n2cc(Oc3nc(O)c4ccncc4n3)cn2)CC1` [Example 95, 2-[1-[1-(benzenesulfonyl)piperidin-4-yl]pyrazol-4-yl]oxypyrido[3,4-d]pyrimidin-4-ol], the IC50 in experiment [1] and in experiment [2] was ≤ 100 nM in each case.

For the compound `Cn1cnc(-c2nccc3c(O)nc(OCC(F)F)nc23)c1` [Example 77, 2-(2,2-difluoroethoxy)-8-(1-methylimidazol-4-yl)pyrido[3,4-d]pyrimidin-4-ol], the concentration for half-maximal inhibition (IC50) in experiment [1] was ≤ 100 nM; in experiment [2], 100 to 1000 nM.

As to `CCC(C)Oc1nc(O)c2ccncc2n1` (stereo not drawn) [Example 9, 2-butan-2-yloxy-3H-pyrido[3,4-d]pyrimidin-4-one], the IC50 is 1000 to 10000 nM in experiment [1] and ≤ 100 nM in experiment [2].

As for `COc1cccc(Oc2nc(O)c3ccncc3n2)c1` [Example 44, 2-(3-methoxyphenoxy)pyrido[3,4-d]pyrimidin-4-ol], the IC50 in experiment [1] was ≤ 100 nM; in experiment [2] it was 100 to 1000 nM.

For `Cn1cnc(-c2nccc3c(O)nc(OCc4cccc(Cl)c4Cl)nc23)c1` [Example 106, 2-[(2,3-dichlorophenyl)methoxy]-8-(1-methyl-1H-imidazol-4-yl)pyrido[3,4-d]pyrimidin-4-ol], the half-inhibitory concentration (IC50) is ≤ 100 nM in experiment [1] and 100 to 1000 nM in experiment [2].

`Oc1nc(OCC2CCC2)nc2cnccc12` [Example 11, 2-(cyclobutylmethoxy)-3H-pyrido[3,4-d]pyrimidin-4-one]: the IC50 in experiment [1] and in experiment [2] was 100 to 1000 nM throughout.

As to `Cc1nn(C)c2cc(Oc3nc(O)c4ccnc(-c5cn(C)cn5)c4n3)ccc12` [Example 85, 2-(1,3-dimethylindazol-6-yl)oxy-8-(1-methylimidazol-4-yl)pyrido[3,4-d]pyrimidin-4-ol], the results for the 50% inhibitory concentration (IC50) in experiment [1] and in experiment [2] were ≤ 100 nM and 100 to 1000 nM, respectively.

For `Oc1nc(Oc2cccc(F)c2F)nc2cnccc12` [Example 42, 2-(2,3-difluorophenoxy)pyrido[3,4-d]pyrimidin-4-ol], the 50% inhibitory concentration (IC50) in experiment [1] and in experiment [2] was 100 to 1000 nM throughout.

Regarding `CN(C)CCOc1nc(O)c2ccnc(-c3cn(C)cn3)c2n1` [Example 76, 2-[2-(dimethylamino)ethoxy]-8-(1-methylimidazol-4-yl)pyrido[3,4-d]pyrimidin-4-ol], the 50% inhibitory concentration (IC50) in experiment [1] and in experiment [2] was 100 to 1000 nM throughout.

With `C=CC(=O)N1CCC(n2cc(Oc3nc(O)c4ccncc4n3)cn2)CC1` [Example 91, 1-[4-[4-(4-hydroxypyrido[3,4-d]pyrimidin-2-yl)oxypyrazol-1-yl]piperidin-1-yl]prop-2-en-1-one], the IC50 in experiment [1] is ≤ 100 nM; in experiment [2], 100 to 1000 nM.

For `O=S(=O)(C1CC1)N1CCC(n2cc(Oc3nc(O)c4ccncc4n3)cn2)CC1` [Example 94, 2-[1-(1-cyclopropylsulfonylpiperidin-4-yl)pyrazol-4-yl]oxypyrido[3,4-d]pyrimidin-4-ol], the IC50 in experiment [1] and in experiment [2] was ≤ 100 nM each time.

As for `CCOc1c(F)cc(Oc2nc(O)c3ccncc3n2)cc1F` [Example 45, 2-(4-ethoxy-3,5-difluorophenoxy)pyrido[3,4-d]pyrimidin-4-ol], the IC50 was ≤ 100 nM in experiment [1] and 100 to 1000 nM in experiment [2].
